In brackets after ≈: the same amount, converted by molar mass.
How the values were obtained:
Assay type in all cases: physicochemical
[1] = Solid-state chemical stability: degradation products by UPLC/HPLC after stress storage; conditions: for DP % (Degradation Product), Bulk (UPLC): Solid state
Description: (§1) Compound I, Compound I fumaric acid co-crystals and amorphous Compound I fumaric acid samples (10 mg) were placed in an open vial at 50° C./75% RH and 80° C./75% RH chamber for one week. A same amount of sample was placed in a closed vial at 50° C. and 80° C. chamber for 1 week. The samples were exposed to 100 k Lux light for 12 h at 25° C. Solids were examined by XRPD for physical stability determination and by UPLC for chemical stability determination. The color of the samples was evaluated by visual observation. Table 5 compares the stability of Compound I and its various solid forms.

[2] = Solid-state physical stability: form change by XRPD after stress storage; conditions: for Bulk (XRPD): Solid state
Description: as §1

[3] = Solubility in various media at 25° C. after 24 hours equilibration (UPLC); conditions: for final pH of the sample (in parentheses): after 24 hours equilibration
[4] = Dynamic Vapor Sorption (DVS) moisture absorption / hygroscopicity; conditions: for solid form after DVS: after DVS testing
[5] = Crystal form after grinding, compression and wet granulation; conditions: compression and wet granulation (water and ethanol), listed as free form hydrate
[6] = Form after storage at 92% RH; conditions: 24 hrs
[7] = Form after degradation at 160° C.
[8] = 50° C., 50° C./75& RH, 80° C. and 80° C./75% RH for one week
[9] = 1 week 50° C., closed container
[10] = 1 week 80° C., closed container

Compound: Cc1nc(C)c(C(=O)Nc2ccc(F)c(-c3nc4ncc(-c5ncccc5C)cn4n3)c2)o1 [Free Form, N-(4-fluoro-3-(6-(3-methylpyridin-2-yl)-[1,2,4]triazolo[1,5-a]pyrimidin-2-yl)phenyl)-2,4-dimethyloxazole-5-carboxamide]
- chemical stability in bulk [1, 8]: chemically stable
- stability upon exposure to light ([1]; 1200 kLuxh light for 12 hrs): stable
- DP % (Degradation Product), Bulk (UPLC) [1, 9]: 0.6%
- DP % (Degradation Product), Bulk (UPLC) ([1]; 1 week 50° C./75% r.h.): 0.6%
- DP % (Degradation Product), Bulk (UPLC) [1, 10]: 0.6%
- DP % (Degradation Product), Bulk (UPLC) ([1]; 1 week 80° C./75% r.h.): 0.6%
- DP % (Degradation Product), Amber vial (HPLC) ([1]; Xenon light (approx. 1200 kLuxh), amber vial): 0.8%
- DP % (Degradation Product), Clear vial (HPLC) ([1]; Xenon light (approx. 1200 kLuxh), clear vial): 0.6%
- form change in bulk [2, 8]: form changes were noticed
- form obtained upon exposure to 75% RH humidity ([2]; 75% RH at both temperatures (50° C. and 80° C.), one week): a dihydrate was obtained
- Bulk (XRPD) [2, 9]: no change
- Bulk (XRPD) ([2]; 1 week 50° C./75% r.h.): change
- Bulk (XRPD) [2, 10]: change
- form observed ([2]; under 50° C./75% RH): mixture of the free form hydrate and anhydrous modification
- final pH of the sample (in parentheses) ([3]; 0.01N HCl pH 2.0): 2.10
- solubility ([3]; 0.1N HCl pH 1.0, 25° C., 24 hours equilibration): 232 µg/mL (≈ 523 µM)
- final pH of the sample (in parentheses) ([3]; 0.1N HCl pH 1.0): 1.00
- solubility ([3]; FaSSIF pH 6.5, 25° C., 24 hours equilibration): 4 µg/mL (≈ 9.02 µM)
- final pH of the sample (in parentheses) ([3]; FaSSIF pH 6.5): 6.31
- solubility ([3]; FeSSIF pH 5.8, 25° C., 24 hours equilibration): 6 µg/mL (≈ 13.5 µM)
- final pH of the sample (in parentheses) ([3]; FeSSIF pH 5.8): 5.73
- solubility ([3]; SGF pH 2.0, 25° C., 24 hours equilibration): 29 µg/mL (≈ 65.4 µM)
- final pH of the sample (in parentheses) ([3]; SGF pH 2.0): 1.99
- solubility ([3]; acetate buffer pH 4.7, 25° C., 24 hours equilibration): 2 µg/mL (≈ 4.51 µM)
- final pH of the sample (in parentheses) ([3]; acetate buffer pH 4.7): 4.68
- solubility ([3]; borate buffer pH 10.0, 25° C., 24 hours equilibration): 2 µg/mL (≈ 4.51 µM)
- final pH of the sample (in parentheses) ([3]; borate buffer pH 10.0): 8.58
- solubility ([3]; phosphate buffer pH 6.8, 25° C., 24 hours equilibration): 1 µg/mL (≈ 2.26 µM)
- final pH of the sample (in parentheses) ([3]; phosphate buffer pH 6.8): 6.65
- solubility at 24 h ([3]; simulated gastric fluid, thermodynamic from solid, 0.01N HCl pH 2.0, 25° C., 24 hours equilibration): 17 µg/mL (≈ 38.3 µM)
- solubility ([3]; water, 25° C., 24 hours equilibration): 9 µg/mL (≈ 20.3 µM)
- final pH of the sample (in parentheses) ([3]; water): 8.18
- solid form after DVS ([4]; listed as Compound I free form): changes into a dihydrate
- solid form after DVS ([4]; listed as free form hydrate): form change that is likely a dihydrate
- moisture absorption by DVS ([4]; at 25° C., RH not stated): 8.9%
- hygroscopicity ([4]; by DVS, listed as free form hydrate): hygroscopic
- crystal form after grinding, compression and wet granulation [5]: converted to a different hydrate or a hydrate mixture
- form after storage at 92% RH ([6]; listed as Compound I free form): changes into a dihydrate
- form after storage at 92% RH ([6]; listed as free form hydrate): dihydrate
- form after degradation at 160° C. [7]: converts to an amorphous form

From patent US11891401B2, “Solid forms of N-(4-fluoro-3-(6-(3-methylpyridin-2-yl)-[1,2,4]triazolo[1,5-a]pyrimidin-2-yl)phenyl)-2,4-dimethyloxazole-5-carboxamide” (NOVARTIS AG, priority 2018, dated 2024)
